# Results: patent US11446287B2, “Compounds and methods for EP300 or CBP modulation and indications therefor” (Opna Immuno-Oncology SA, priority 2019, dated 2022)
# Target: T1, Recombinant human CBP containing the bromodomain (CBP-BD (1043-1159)) (Homo sapiens, UniProt Q92793)
# T1 construct: Recombinant human CBP bromodomain (CBP-BD (1043-1159)); made in house; host or cells: E. coli BL21-CodonPlus (DE3), modified pET vector
# Assay: CBP Alphascreen binding assay
# Details: read-out: CREBBP (CBP) IC50
# In short: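 Buffer: 50 mM HEPES pH 7.5, 50 mM NaCl, 0.01% BSA, 0.01% Triton X-100, 2 mM DTT. The signal was normalised to plate controls and fitted with a four-parameter curve to give IC50.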
# T1 sequence (Q92793 1081-1197): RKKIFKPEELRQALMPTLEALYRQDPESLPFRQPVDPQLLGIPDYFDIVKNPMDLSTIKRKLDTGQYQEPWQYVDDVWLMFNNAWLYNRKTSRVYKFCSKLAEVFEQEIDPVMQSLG
row,Structure (SMILES),IC50 [nM]
1,"Cc1noc(C)c1-c1cnc2c(-c3ccc(C(=O)O)cc3F)c(C(F)(F)F)n([C@@H](C)c3ccccn3)c2c1 [P-0234, (S)-4-(6-(3,5-dimethylisoxazol-4-yl)-1-(1-(pyridin-2-yl)ethyl)-2-(trifluoromethyl)-1H-pyrrolo[3,2-b]pyridin-3-yl)-3-fluorobenzoic acid]",0.1 to 1000
2,"Cc1noc(C)c1-c1cnc2c(c1)c(-c1c(F)cc(C(=O)O)cc1OC(F)(F)F)cn2C(C1CC1)C1CC1 [P-0230, 4-(1-(dicyclopropylmethyl)-5-(3,5-dimethylisoxazol-4-yl)-1H-pyrrolo[2,3-b]pyridin-3-yl)-3-fluoro-5-(trifluoromethoxy)benzoic acid]",0.1 to 1000
3,"CCOc1cc(C(=O)O)cc(OCC)c1-n1cc(-c2cncc(Cl)c2)c2ncc(-c3c(C)noc3C)cc21 [P-0193, 4-(3-(5-chloropyridin-3-yl)-6-(3,5-dimethylisoxazol-4-yl)-1H-pyrrolo[3,2-b]pyridin-1-yl)-3,5-diethoxybenzoic acid]",0.1 to 1000
4,"Cc1noc(C)c1-c1cnc2c(c1)c(-c1ccc(C(=O)O)cc1OC(F)(F)F)cn2-c1ncccc1Cl [P-0183, 4-(1-(3-chloropyridin-2-yl)-5-(3,5-dimethylisoxazol-4-yl)-1H-pyrrolo[2,3-b]pyridin-3-yl)-3-(trifluoromethoxy)benzoic acid]",0.1 to 1000
5,"COc1ccc(C(=O)O)cc1-c1c(C(F)(F)F)n([C@@H](C)c2ccccn2)c2cc(-c3c(C)noc3C)cnc12 [P-0239, (S)-3-(6-(3,5-dimethylisoxazol-4-yl)-1-(1-(pyridin-2-yl)ethyl)-2-(trifluoromethyl)-1H-pyrrolo[3,2-b]pyridin-3-yl)-4-methoxybenzoic acid]",1000 to 8000
6,"Cc1noc(C)c1-c1cnc2c(c1)c(-c1ccc(C(=O)O)cc1)cn2C(C)c1ncccn1 (stereo not shown) [P-0013, 4-(5-(3,5-dimethylisoxazol-4-yl)-1-(1-(pyrimidin-2-yl)ethyl)-1H-pyrrolo[2,3-b]pyridin-3-yl)benzoic acid]",0.1 to 1000
7,"Cc1noc(C)c1-c1cnc2c(c1)c(-c1ccncc1)cn2C(c1ccccn1)C1CCCC1 (stereo not shown) [P-0019, 4-(1-(cyclopentyl(pyridin-2-yl)methyl)-3-(pyridin-4-yl)-1H-pyrrolo[2,3-b]pyridin-5-yl)-3,5-dimethylisoxazole]",1000 to 8000
8,"COc1cc(C(=O)O)cc(OC)c1-n1cc(-c2ccccc2)c2ncc(-c3c(C)noc3C)cc21 [P-0220, 4-(6-(3,5-dimethylisoxazol-4-yl)-3-phenyl-1H-pyrrolo[3,2-b]pyridin-1-yl)-3,5-dimethoxybenzoic acid]",0.1 to 1000
9,"Cc1noc(C)c1-c1cnc2c(c1)c(-c1ccc(C(=O)O)cc1C#CC1CC1)cn2[C@@H](C)c1ccccn1 [P-0178, (S)-3-(cyclopropylethynyl)-4-(5-(3,5-dimethylisoxazol-4-yl)-1-(1-(pyridin-2-yl)ethyl)-1H-pyrrolo[2,3-b]pyridin-3-yl)benzoic acid]",1000 to 8000
10,"CCOc1cc(C(=O)O)cc(OCC)c1-n1cc(-c2ccc(F)cc2F)c2ncc(-c3c(C)noc3C)cc21 [P-0186, 4-(3-(2,4-difluorophenyl)-6-(3,5-dimethylisoxazol-4-yl)-1H-pyrrolo[3,2-b]pyridin-1-yl)-3,5-diethoxybenzoic acid]",0.1 to 1000
11,"CCOc1cc(C(=O)O)cc(OCC)c1-n1cc(-c2ccc(C(=O)NC3CC3)cc2)c2ncc(-c3c(C)noc3C)cc21 [P-0218, 4-(3-(4-(cyclopropylcarbamoyl)phenyl)-6-(3,5-dimethylisoxazol-4-yl)-1H-pyrrolo[3,2-b]pyridin-1-yl)-3,5-diethoxybenzoic acid]",0.1 to 1000
12,"CCOc1cc(C(=O)O)cc(OCC)c1-n1cc(-c2ccc(F)c(Cl)c2)c2ncc(-c3c(C)noc3C)cc21 [P-0209, 4-(3-(3-chloro-4-fluorophenyl)-6-(3,5-dimethylisoxazol-4-yl)-1H-pyrrolo[3,2-b]pyridin-1-yl)-3,5-diethoxybenzoic acid]",0.1 to 1000
13,"Cc1noc(C)c1-c1cnc2c(-c3ccccc3)cn(-c3c(Cl)cccc3C#N)c2c1 [P-0207, 3-chloro-2-(6-(3,5-dimethylisoxazol-4-yl)-3-phenyl-1H-pyrrolo[3,2-b]pyridin-1-yl)benzonitrile]",1000 to 8000
14,"COc1ccncc1-n1cc(-c2ccc(C(=O)O)cc2OC(F)(F)F)c2cc(-c3c(C)noc3C)cnc21 [P-0176, 4-(5-(3,5-dimethylisoxazol-4-yl)-1-(4-methoxypyridin-3-yl)-1H-pyrrolo[2,3-b]pyridin-3-yl)-3-(trifluoromethoxy)benzoic acid]",0.1 to 1000
15,"Cc1noc(C)c1-c1cnc2c(c1)c(-c1ccc(C(=O)O)cc1OC(F)(F)F)cn2CCN1CCOCC1 [P-0191, 4-(5-(3,5-dimethylisoxazol-4-yl)-1-(2-morpholinoethyl)-1H-pyrrolo[2,3-b]pyridin-3-yl)-3-(trifluoromethoxy)benzoic acid]",0.1 to 1000
16,"Cc1noc(C)c1-c1cnc2c(-c3cc(F)cc(C(=O)O)c3)c(C(F)(F)F)n([C@@H](C)c3ccccn3)c2c1 [P-0240, (S)-3-(6-(3,5-dimethylisoxazol-4-yl)-1-(1-(pyridin-2-yl)ethyl)-2-(trifluoromethyl)-1H-pyrrolo[3,2-b]pyridin-3-yl)-5-fluorobenzoic acid]",0.1 to 1000

row,Structure (SMILES),IC50 [nM]
1,"CCOc1cc(C(=O)O)cc(OCC)c1-n1cc(Cc2ccccn2)c2ncc(-c3c(C)noc3C)cc21 [P-0187, 4-(6-(3,5-dimethylisoxazol-4-yl)-3-(pyridin-2-ylmethyl)-1H-pyrrolo[3,2-b]pyridin-1-yl)-3,5-diethoxybenzoic acid]",0.1 to 1000
2,"Cc1noc(C)c1-c1cnc2c(c1)c(-c1ccc(C(=O)O)cc1OC(F)(F)F)cn2C(CC#N)C1CCCC1 (stereo not shown) [P-0200, 4-(1-(2-cyano-1-cyclopentylethyl)-5-(3,5-dimethylisoxazol-4-yl)-1H-pyrrolo[2,3-b]pyridin-3-yl)-3-(trifluoromethoxy)benzoic acid]",0.1 to 1000
3,"CCOc1cc(C(=O)O)cc(OCC)c1-n1cc(-c2cnc(OC)nc2)c2ncc(-c3c(C)noc3C)cc21 [P-0201, 4-(6-(3,5-dimethylisoxazol-4-yl)-3-(2-methoxypyrimidin-5-yl)-1H-pyrrolo[3,2-b]pyridin-1-yl)-3,5-diethoxybenzoic acid]",0.1 to 1000
4,"Cc1noc(C)c1-c1cnc2c(c1)c(-c1ccc(C(=O)O)cc1OC(F)(F)F)cn2C1CCS(=O)(=O)CC1 [P-0212, 4-(5-(3,5-dimethylisoxazol-4-yl)-1-(1,1-dioxidotetrahydro-2H-thiopyran-4-yl)-1H-pyrrolo[2,3-b]pyridin-3-yl)-3-(trifluoromethoxy)benzoic acid]",0.1 to 1000
5,"COc1cccc(OC)c1-n1cc(-c2ccccc2)c2ncc(-c3c(C)noc3C)cc21 [P-0221, 4-(1-(2,6-dimethoxyphenyl)-3-phenyl-1H-pyrrolo[3,2-b]pyridin-6-yl)-3,5-dimethylisoxazole]",1000 to 8000
6,"CCOc1cc(C(=O)O)cc(OCC)c1-n1cc(CC2CCC2)c2ncc(-c3c(C)nnn3C)cc21 [P-0190, 4-(3-(cyclobutylmethyl)-6-(1,4-dimethyl-1H-1,2,3-triazol-5-yl)-1H-pyrrolo[3,2-b]pyridin-1-yl)-3,5-diethoxybenzoic acid]",0.1 to 1000
7,"Cc1noc(C)c1-c1cnc2c(-c3cc(Cl)cc(C(=O)O)c3)c(C(F)(F)F)n([C@@H](C)c3ccccn3)c2c1 [P-0241, (S)-3-chloro-5-(6-(3,5-dimethylisoxazol-4-yl)-1-(1-(pyridin-2-yl)ethyl)-2-(trifluoromethyl)-1H-pyrrolo[3,2-b]pyridin-3-yl)benzoic acid]",0.1 to 1000
8,"Cc1noc(C)c1-c1cnc2c(c1)c(-c1ccc(C(=O)O)cc1OC(F)(F)F)cn2-c1ccnc(C(C)C)c1 [P-0203, 4-(5-(3,5-dimethylisoxazol-4-yl)-1-(2-isopropylpyridin-4-yl)-1H-pyrrolo[2,3-b]pyridin-3-yl)-3-(trifluoromethoxy)benzoic acid]",0.1 to 1000
9,"Cc1noc(C)c1-c1cnc2c(-c3cn(C)nc3C3CC3)c(C(F)(F)F)n([C@@H](C)c3ccccn3)c2c1 [P-0237, (S)-4-(3-(3-cyclopropyl-1-methyl-1H-pyrazol-4-yl)-1-(1-(pyridin-2-yl)ethyl)-2-(trifluoromethyl)-1H-pyrrolo[3,2-b]pyridin-6-yl)-3,5-dimethylisoxazole]",0.1 to 1000
10,"COc1ccc(C(=O)O)cc1-c1cn(C(C)(c2ccccn2)c2ccccn2)c2cc(-c3c(C)noc3C)cnc12 [P-0172, 3-(1-(1,1-di(pyridin-2-yl)ethyl)-6-(3,5-dimethylisoxazol-4-yl)-1H-pyrrolo[3,2-b]pyridin-3-yl)-4-methoxybenzoic acid]",1000 to 8000
11,"CCOc1cc(C(=O)O)cc(OCC)c1-n1cc(CC2CCC2)c2ncc(-c3c(COC)noc3C)cc21 [P-0210, 4-(3-(cyclobutylmethyl)-6-(3-(methoxymethyl)-5-methylisoxazol-4-yl)-1H-pyrrolo[3,2-b]pyridin-1-yl)-3,5-diethoxybenzoic acid]",0.1 to 1000
12,"CCOc1cc(C(=O)O)cc(OCC)c1-n1cc(-c2ccnc(F)c2)c2ncc(-c3c(C)noc3C)cc21 [P-0222, 4-(6-(3,5-dimethylisoxazol-4-yl)-3-(2-fluoropyridin-4-yl)-1H-pyrrolo[3,2-b]pyridin-1-yl)-3,5-diethoxybenzoic acid]",0.1 to 1000
13,"CCOc1cc(C(=O)O)cc(OCC)c1-n1cc(-c2cccnc2)c2ncc(-c3c(C)noc3C)cc21 [P-0173, 4-(6-(3,5-dimethylisoxazol-4-yl)-3-(pyridin-3-yl)-1H-pyrrolo[3,2-b]pyridin-1-yl)-3,5-diethoxybenzoic acid]",0.1 to 1000
14,"Cc1noc(C)c1-c1cnc2c(c1)c(-c1cccc(CC(=O)O)c1)cn2C(c1ccccn1)C1CCCC1 (stereo not shown) [P-0018, 2-(3-(1-(cyclopentyl(pyridin-2-yl)methyl)-5-(3,5-dimethylisoxazol-4-yl)-1H-pyrrolo[2,3-b]pyridin-3-yl)phenyl)acetic acid]",0.1 to 1000
15,"Cc1noc(C)c1-c1cnc2c(c1)c(-c1ccc(C(=O)O)cc1OC1CC1)cn2[C@@H](C)c1ccccn1 [P-0170, (S)-3-cyclopropoxy-4-(5-(3,5-dimethylisoxazol-4-yl)-1-(1-(pyridin-2-yl)ethyl)-1H-pyrrolo[2,3-b]pyridin-3-yl)benzoic acid]",0.1 to 1000
